Source: patent US20120115827A1, “3-AMINOBENZAMIDE COMPOUNDS AND VANILLOID RECEPTOR SUBTYPE 1 (VR1) INHIBITORS” (Japan Tobacco Inc., priority 2004, published 2012)
Counter-ions that a name gives are not always drawn.

target: T1, human VR1 (Homo sapiens, UniProt Q8NER1); test: Inhibition of Ca2+ entry in cells caused by proton (VR1 agonist); assay type: cell-based; conditions: Rat glioma (C6BU1) cells stably expressing human VR1; proton stimulation to pH 5.5; Fura 2-AM fluorescence; read-out: In vitro IC50
T1 construct: expressed in transfected cells
T1 sequence (Q8NER1 whole entry): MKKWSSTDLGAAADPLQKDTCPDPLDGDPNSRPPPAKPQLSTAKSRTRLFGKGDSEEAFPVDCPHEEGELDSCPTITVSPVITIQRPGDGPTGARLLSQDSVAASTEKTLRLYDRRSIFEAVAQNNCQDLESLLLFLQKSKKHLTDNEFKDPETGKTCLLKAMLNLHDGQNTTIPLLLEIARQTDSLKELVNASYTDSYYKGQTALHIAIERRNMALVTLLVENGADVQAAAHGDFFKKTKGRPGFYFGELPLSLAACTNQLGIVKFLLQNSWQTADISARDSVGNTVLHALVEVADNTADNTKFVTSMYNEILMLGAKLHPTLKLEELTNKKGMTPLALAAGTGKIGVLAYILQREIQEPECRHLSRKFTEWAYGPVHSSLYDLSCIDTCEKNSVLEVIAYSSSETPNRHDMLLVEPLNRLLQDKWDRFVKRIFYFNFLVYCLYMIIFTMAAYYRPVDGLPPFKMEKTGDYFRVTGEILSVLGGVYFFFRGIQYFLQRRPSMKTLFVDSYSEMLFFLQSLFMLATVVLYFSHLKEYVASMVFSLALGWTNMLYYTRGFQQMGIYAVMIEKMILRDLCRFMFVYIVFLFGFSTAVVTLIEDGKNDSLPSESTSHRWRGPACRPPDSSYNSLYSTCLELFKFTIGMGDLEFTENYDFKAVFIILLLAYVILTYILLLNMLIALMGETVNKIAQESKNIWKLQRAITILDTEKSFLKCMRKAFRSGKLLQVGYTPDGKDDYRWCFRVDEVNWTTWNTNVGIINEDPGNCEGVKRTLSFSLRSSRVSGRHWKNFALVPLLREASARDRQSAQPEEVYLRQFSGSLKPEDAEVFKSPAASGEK
Description: The assay for evaluation of VR1 inhibition by the inventive compounds will be described below. The assay was intended to evaluate in vitro inhibition of Ca^2+ entry in cells caused by proton, one of the VR1 agonists.
Rat glioma (C6BU1) cells stably expressing human VR1 were suspended in 20 mM MES buffer (at pH 6.8, contg. 20 mM 2-morpholinoethanesulfonate (referred to as MES hereinafter), 115 mM NaCl, 5 mM KCl, 1 mM MgCl2 and 14 mM D-glucose) to make a cell density of 1×10^6 cells/mL. A fluorescent dye, Fura 2-AM solution (Dojindo Corporate, Cat. No. 343-05401) was added to the suspension to make a 5 μM concentration thereof. Further, Pluronic F-127 (Wako Pure Chemical Industries, Ltd., Cat. No. P6866) was added to make a 0.1% content thereof. Then, the suspension was incubated at 37° C. for 30 min. The cells were harvested and washed three times with 20 mM MES buffer. The cells were suspended again to make a cell density of 5×10^5 cells/mL. A 500-μL portion of the suspension was taken with a cuvette (MC MEDICAL, INC., Cat. No. SSR3121), to which […] MES buffer containing 250 mM CaCl2 was added to incorporate Ca^2+ into the cells. At the same time, 5 μL of a test compound solution (in a range of 100 μM to 10 nM in DMSO) was also added to provide a final concentration thereof in a range of 1 μM to 0.1 nM. Alternatively, 5 μl of DMSO was added as control to provide a final concentration of 1% DMSO. The suspension was set in an intracellular ionometer (CAF-110; JASCO) 10 min after those additions. The cells were stimulated with protons by addition of 60 μL of 20 mM MES buffer at pH 1.1 to the suspension to set its pH at 5.5. The activity of the test compound was determined as a difference between the minimum of fluorescence intensity before agonist stimulation and its maximum after the stimulation. The value of IC50 was derived from percentage of inhibition by the test compound compared with the control.

| Compound | IC50 [nM] |
| --- | --- |
| COc1ccc(C(=O)Nc2ccc(OCC(C)C)cc2)cc1N(CCO)c1ccc(C)cn1 [Example 51, N-(4-isobutyloxyphenyl)-4-methoxy-3-[N-(5-methylpyridin-2-yl)-N-(2-hydroxyethyl)amino]-benzamide] | ≤ 100 |
| CCN(c1cc(C(=O)Nc2ccc(C(C)(C)C)cc2)ccc1OC)c1ncccc1Cl [Example 10, N-(4-tert-butylphenyl)-3-[N-(3-chloropyridin-2-yl)-N-ethyl]amino-4-methoxybenzamide] | ≤ 100 |
| CNC(=O)CN(c1cc(C(=O)Nc2ccc(C(C)(C)C)cc2)ccc1Cl)c1ncccc1Cl [Example 48, 4-chloro-3-[N-(3-chloropyridin-2-yl)-N-(N-methylcarbamoylmethyl)amino]-N-(4-tert-butylphenyl)-benzamide] | ≤ 100 |
| CN(c1cc(C(=O)Nc2ccc(OC(F)(F)F)cc2)ccc1Cl)c1ncc(CO)cc1Cl [Example 81, 4-chloro-3-[N-(3-chloro-5-hydroxymethylpyridin-2-yl)-N-methyl-amino]-N-(4-trifluoromethoxyphenyl)-benzamide] | ≤ 100 |
| CN1c2cc(C(=O)Nc3ccc(C(C)(C)C)cc3)ccc2Oc2cccnc21 [Example 17, N-(4-tert-butylphenyl)-10-methyl-10H-benzo[b]pyrido[2,3-e][1,4]oxazine-8-carboxamide] | ≤ 100 |
| COc1ccc(C(=O)Nc2ccc(C(C)(C)C)cc2)cc1N(C)c1ncccc1Cl [Example 4, N-(4-tert-butylphenyl)-3-[N-(3-chloropyridin-2-yl)-N-methyl]amino-4-methoxybenzamide] | ≤ 100 |
| O=C(Nc1ccc(OC(F)(F)F)cc1)c1ccc(Cl)c(N(CCO)c2ncccc2Cl)c1 [Example 32, 4-chloro-3-[N-(3-chloropyridin-2-yl)-N-(2-hydroxyethyl)amino]-N-(4-trifluoromethoxyphenyl)benzamide, hydrochloride salt] | ≤ 100 |
| COCc1cnc(N(CC(N)=O)c2cc(C(=O)Nc3ccc(OC(F)(F)F)cc3)ccc2Cl)c(Cl)c1 [Example 71, 4-chloro-3-[N-(3-chloro-5-methoxymethylpyridin-2-yl)-N-(carbamoylmethyl)amino]-N-(trifluoromethoxyphenyl)-benzamide] | ≤ 100 |
| CN(c1cc(C(=O)Nc2ccc(C(C)(C)C)cc2)ccc1O)c1ncccc1Cl [Example 15, N-(4-tert-butylphenyl)-3-[N-(3-chloropyridin-2-yl)-N-methyl-amino]-4-hydroxybenzamide] | ≤ 100 |
| CC(C)(C)c1ccc(NC(=O)c2ccc(Cl)c(N(CC(=O)O)c3ncccc3Cl)c2)cc1 [Example 46, N-(3-chloropyridin-2-yl)-N-{2-chloro-5-[N-(4-tert-butylphenyl)carbamoyl]phenyl}-aminoacetic acid] | ≤ 100 |
| CN(c1cc(C(=O)Nc2ccc(C(C)(C)C)cc2)ccc1Cl)c1ncc(CO)cc1Cl [Example 78, N-(4-tert-butylphenyl)-4-chloro-3-[N-(3-chloro-5-hydroxymethylpyridin-2-yl)-N-methyl-amino]benzamide] | ≤ 100 |
| CN(c1cc(C(=O)Nc2ccc(C(C)(C)C)cc2)ccc1Cl)c1ncccc1Cl [Example 12, N-(4-tert-butylphenyl)-4-chloro-3-[N-(3-chloropyridin-2-yl)-N-methyl-amino]benzamide] | ≤ 100 |
| CN(c1cc(C(=O)Nc2ccc(OC(F)(F)F)cc2)ccc1F)c1ncc(CO)cc1Cl [Example 83, 3-[N-(3-chloro-5-hydroxymethylpyridin-2-yl)-N-methyl-amino]-4-fluoro-N-(4-trifluoromethoxyphenyl)-benzamide] | ≤ 100 |
| O=C(Nc1ccc(C(F)(F)F)cc1)c1cccc(N(CCO)c2ncccc2Cl)c1 [Example 54, 3-[N-(3-chloropyridin-2-yl)-N-(2-hydroxyethyl)amino]-N-(4-trifluoromethylphenyl)-benzamide] | ≤ 100 |
| CC(C)Oc1ccc(C(=O)Nc2ccc(C(C)(C)C)cc2)cc1N(C)c1ncccc1Cl [Example 16, N-(4-tert-butylphenyl)-3-[N-(3-chloropyridin-2-yl)-N-methyl-amino]-4-isopropoxybenzamide] | ≤ 100 |
| O=C(Nc1ccc(N2CCCCC2)c(F)c1)c1ccc(Cl)c(N(CCO)c2ncccc2Cl)c1 [Example 43, 4-chloro-3-[N-(3-chloropyridin-2-yl)-N-(2-hydroxyethyl)amino]-N-(3-fluoro-4-piperidinylphenyl)-benzamide] | ≤ 100 |
| CC(C)COc1ccc(NC(=O)c2ccc(Cl)c(N(CCO)c3ncccc3Cl)c2)cc1C(=O)N(C)C [Example 56, 4-chloro-3-[N-(3-chloropyridin-2-yl)-N-(2-hydroxyethyl)amino]-N-(3-dimethylcarbamoyl-4-isobutyloxyphenyl)-benzamide] | ≤ 100 |

Other lines, results leading:

| IC50 [nM] | Compound |
| --- | --- |
| ≤ 100 | O=C(Nc1ccc(C(F)(F)F)nc1)c1ccc(Cl)c(N(CCO)c2ncccc2Cl)c1 [Example 40, 4-chloro-3-[N-(3-chloropyridin-2-yl)-N-(2-hydroxyethyl)amino]-N-(2-trifluoromethylpyridine-5-yl)benzamide] |
| ≤ 100 | Cc1ccc(C(=O)Nc2ccc(OCC(C)C)cc2)cc1N(CC(N)=O)c1ncccc1Cl [Example 65] |
| ≤ 100 | CN(c1cc(Cl)cc(C(=O)Nc2ccc(C(C)(C)C)cc2)c1)c1ncccc1Cl [Example 23, N-(4-tert-butylphenyl)-5-chloro-3-[N-(3-chloropyridin-2-yl)-N-methyl]aminobenzamide] |
| 100 to 1000 | CN(C)C(=O)c1cnc(N(C)c2cc(C(=O)Nc3ccc(C(C)(C)C)cc3)ccc2Cl)c(Cl)c1 [Example 77, 6-{[5-(4-tert-butylphenylcarbamoyl)-2-chlorophenyl]-methyl-amino}-5-chloro-N,N-dimethylnicotinamide] |
| ≤ 100 | NC(=O)CN(c1cc(C(=O)Nc2ccc(N3CCCCC3)c(F)c2)ccc1Cl)c1ncccc1Cl [Example 62, 4-chloro-3-[N-(3-chloropyridin-2-yl)-N-(carbamoylmethyl)amino]-N-(3-fluoro-4-piperidinophenyl)-benzamide] |
| ≤ 100 | COCOc1ccc(C(=O)Nc2ccc(C(C)(C)C)cc2)cc1N(C)c1ncccc1Cl [Example 14, N-(4-tert-butylphenyl)-3-[N-(3-chloropyridin-2-yl)-N-methyl-amino]-4-methoxymethyloxybenzamide] |
| ≤ 100 | CC(C)COc1ccc(NC(=O)c2cccc(N(CCO)c3ncccc3Cl)c2)cc1 [Example 52, 3-[N-(3-chloropyridin-2-yl)-N-(2-hydroxyethyl)amino]-N-(4-isobutyloxyphenyl)-benzamide] |
| ≤ 100 | CC(C)Oc1ccc(NC(=O)c2ccc(Cl)c(N(CCO)c3ncccc3Cl)c2)cc1 [Example 41, 4-chloro-3-[N-(3-chloropyridin-2-yl)-N-(2-hydroxyethyl)amino]-N-(4-isopropyloxyphenyl)-benzamide] |
| ≤ 100 | NC(=O)CN(c1ccc(Cl)cn1)c1cc(C(=O)Nc2ccc(OC(F)(F)F)cc2)ccc1Cl [Example 69] |
| ≤ 100 | CC(C)(C)c1ccc(NC(=O)c2ccc(Cl)c(N(CC(=O)NCCO)c3ncccc3Cl)c2)cc1 [Example 57, N-(4-tert-butylphenyl)-4-chloro-3-{N-(3-chloropyridin-2-yl)-N—[N-(2-hydroxyethyl)carbamoylmethyl]amino}-benzamide] |
| ≤ 100 | CN(c1cc(C(=O)Nc2ccc(C(F)(F)F)cc2)ccc1F)c1ncc(CO)cc1Cl [Example 82, 3-[N-(3-chloro-5-hydroxymethylpyridin-2-yl)-N-methyl-amino]-4-fluoro-N-(4-trifluoromethylphenyl)-benzamide] |
| ≤ 100 | CC(C)COc1ccc(NC(=O)c2ccc(Cl)c(N(CCO)c3ncccc3Cl)c2)cc1 [Example 35, 4-chloro-3-[N-(3-chloropyridin-2-yl)-N-(2-hydroxyethyl)amino]-N-(4-isobutyloxyphenyl)benzamide, hydrochloride salt] |
| ≤ 100 | O=C(Nc1ccc(Cl)c(C(F)(F)F)c1)c1ccc(Cl)c(N(CCO)c2ncccc2Cl)c1 [Example 39, 4-chloro-3-[N-(3-chloropyridin-2-yl)-N-(2-hydroxyethyl)amino]-N-(4-chloro-3-trifluoromethylphenyl)benzamide] |
| ≤ 100 | CC(C)(C)c1ccc(NC(=O)c2cccc(N(CCO)c3ncccc3Cl)c2)cc1 [Example 53, N-(4-tert-butylphenyl)-3-[N-(3-chloropyridin-2-yl)-N-(2-hydroxyethyl)amino]-benzamide] |
| ≤ 100 | COc1c(C(=O)Nc2ccc(C(C)(C)C)cc2)cccc1N(C)c1ncccc1Cl [Example 26, N-(4-tert-butylphenyl)-3-[N-(3-chloropyridin-2-yl)-N-methyl]amino-2-methoxybenzamide] |
